Results as given in PubChem BioAssay AID1963960 (Molecular Pharmacology Branch, DTP, NCI, 2024).

Test system: MDA-MB-468 spheroids with HUVEC/MSC, viability
Experiment: Anticancer human tumor MDA-MB-468 cell line growth inhibition [PI3K];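 note: spheroids exposed to agents for seven days before readout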;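 for viability, T/C: 100% = DMSO vehicle control viability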
Conditions: for IC50: curve of first compound; for viability, T/C: stronger effect = lower value
Outline: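 High-throughput combination screen: PI3K inhibitors crossed with targeted small molecules on complex spheroids of tumor cells, HUVEC and MSCs at 37 degrees C, 5% CO2. Top concentration was at or near clinical Cmax (otherwise 10 microM), with half-log decrements.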

[1] = second compound 0.00316 µM, first compound 0.0316 µM
[2] = second compound 0.00316 µM, first compound 0.1 µM
[3] = second compound 0.00316 µM, first compound 0.316 µM
[4] = second compound 0.00316 µM, first compound 1 µM
[5] = second compound 0.00316 µM, first compound 3.16 µM
[6] = second compound 0.00316 µM, first compound 10 µM
[7] = second compound 0.01 µM, first compound 0.0316 µM
[8] = second compound 0.01 µM, first compound 0.1 µM
[9] = second compound 0.01 µM, first compound 0.316 µM
[10] = second compound 0.01 µM, first compound 1 µM
[11] = second compound 0.01 µM, first compound 3.16 µM
[12] = second compound 0.01 µM, first compound 10 µM
[13] = second compound 0.0316 µM, first compound 0.0316 µM
[14] = second compound 0.0316 µM, first compound 0.1 µM
[15] = second compound 0.0316 µM, first compound 0.316 µM
[16] = second compound 0.0316 µM, first compound 1 µM
[17] = second compound 0.0316 µM, first compound 3.16 µM
[18] = second compound 0.0316 µM, first compound 10 µM
[19] = second compound 0.1 µM, first compound 0.0316 µM
[20] = second compound 0.1 µM, first compound 0.1 µM
[21] = second compound 0.1 µM, first compound 0.316 µM
[22] = second compound 0.1 µM, first compound 1 µM
[23] = second compound 0.1 µM, first compound 3.16 µM
[24] = second compound 0.1 µM, first compound 10 µM
[25] = second compound 0.316 µM, first compound 0.0316 µM
[26] = second compound 0.316 µM, first compound 0.1 µM
[27] = second compound 0.316 µM, first compound 0.316 µM
[28] = second compound 0.316 µM, first compound 1 µM
[29] = second compound 0.316 µM, first compound 3.16 µM
[30] = second compound 0.316 µM, first compound 10 µM
[31] = second compound 1 µM, first compound 0.0316 µM
[32] = second compound 1 µM, first compound 0.1 µM
[33] = second compound 1 µM, first compound 0.316 µM
[34] = second compound 1 µM, first compound 1 µM
[35] = second compound 1 µM, first compound 3.16 µM
[36] = second compound 1 µM, first compound 10 µM

Compound `Cn1ncc(Cl)c1-c1cc(C(=O)NC(CN)Cc2cccc(F)c2)sc1Cl` (stereo unspecified) + COc1c(OCCCN2CCOCC2)ccc2c3n(c(=NC(=O)c4cnc(N)nc4)nc12)CCN3 has an IC50 (second compound 0.00316 µM) of 331 nM, an IC50 (second compound 0.01 µM) of 236 nM and an IC50 (second compound 0.0316 µM) of 152 nM. The IC50 (second compound 0.1 µM) was under 31.6 nM, the IC50 (second compound 0.316 µM) was under 31.6 nM and the IC50 (second compound 1 µM) was under 31.6 nM. It also gave a viability, T/C [1] of 78.5%, a viability, T/C [2] of 66.2% and a viability, T/C [3] of 50.1%. It also gave a viability, T/C [4] of 36.1%, a viability, T/C [5] of 25.3% and a viability, T/C [6] of 17.2%. For the same compound, the viability, T/C [7] was 71.8%, the viability, T/C [8] was 64.2% and the viability, T/C [9] was 42.7%. For the same compound, the viability, T/C [10] was 33.2%, the viability, T/C [11] was 22.9% and the viability, T/C [12] was 14.6%. For the same compound, the viability, T/C [13] was 66.5%, the viability, T/C [14] was 58.7% and the viability, T/C [15] was 37.2%. For the same compound, the viability, T/C [16] was 28.5%, the viability, T/C [17] was 22.1% and the viability, T/C [18] was 12.1%. For the same compound, the viability, T/C [19] was 49.6%, the viability, T/C [20] was 40% and the viability, T/C [21] was 33.9%. For the same compound, the viability, T/C [22] was 25.4%, the viability, T/C [23] was 17.5% and the viability, T/C [24] was 7.31%. The viability, T/C [25] was 25.1%, the viability, T/C [26] was 21.1% and the viability, T/C [27] was 20.4%. The viability, T/C [28] was 14.9%, the viability, T/C [29] was 12.7% and the viability, T/C [30] was 4.16%. For the same compound, the viability, T/C [31] was 3.44%, the viability, T/C [32] was 3.28% and the viability, T/C [33] was 3.02%. It also gave a viability, T/C [34] of 3.44%, a viability, T/C [35] of 3.8% and a viability, T/C [36] of 1.32%.

`Cn1nccc1Nc1nccc(-c2ccn(C(CO)c3ccc(Cl)c(F)c3)c(=O)c2)n1` (stereo unspecified) + COc1c(OCCCN2CCOCC2)ccc2c3n(c(=NC(=O)c4cnc(N)nc4)nc12)CCN3 showed an IC50 (second compound 0.00316 µM) of over 10000 nM, an IC50 (second compound 0.01 µM) of over 10000 nM and an IC50 (second compound 0.0316 µM) of 7630 nM. It also gave an IC50 (second compound 0.1 µM) of 4400 nM, an IC50 (second compound 0.316 µM) of under 31.6 nM and an IC50 (second compound 1 µM) of under 31.6 nM. The viability, T/C [1] was 90.7%, the viability, T/C [2] was 83% and the viability, T/C [3] was 79.1%. For the same compound, the viability, T/C [4] was 85.3%, the viability, T/C [5] was 81.3% and the viability, T/C [6] was 73.6%. It also gave a viability, T/C [7] of 71.1%, a viability, T/C [8] of 86.5% and a viability, T/C [9] of 78.7%. For the same compound, the viability, T/C [10] was 71.8%, the viability, T/C [11] was 77.9% and the viability, T/C [12] was 76.9%. For the same compound, the viability, T/C [13] was 71.3%, the viability, T/C [14] was 68.7% and the viability, T/C [15] was 71.7%. It also gave a viability, T/C [16] of 73.9%, a viability, T/C [17] of 61.9% and a viability, T/C [18] of 46%. For the same compound, the viability, T/C [19] was 56.3%, the viability, T/C [20] was 54.9% and the viability, T/C [21] was 52.5%. For the same compound, the viability, T/C [22] was 52.4%, the viability, T/C [23] was 50.9% and the viability, T/C [24] was 48.6%. It also gave a viability, T/C [25] of 24.6%, a viability, T/C [26] of 23.3% and a viability, T/C [27] of 23.3%. For the same compound, the viability, T/C [28] was 24.9%, the viability, T/C [29] was 26% and the viability, T/C [30] was 19.9%. The viability, T/C [31] was 3.06%, the viability, T/C [32] was 2.27% and the viability, T/C [33] was 2.37%. It also gave a viability, T/C [34] of 2.51%, a viability, T/C [35] of 1.79% and a viability, T/C [36] of 0.85%.

`Cn1ncnc1[C@H]1c2n[nH]c(=O)c3cc(F)cc(c23)N[C@@H]1c1ccc(F)cc1` + COc1c(OCCCN2CCOCC2)ccc2c3n(c(=NC(=O)c4cnc(N)nc4)nc12)CCN3 showed an IC50 (second compound 0.00316 µM) of over 100 nM, an IC50 (second compound 0.01 µM) of over 100 nM and an IC50 (second compound 0.0316 µM) of 83.4 nM. The IC50 (second compound 0.1 µM) was 23.1 nM, the IC50 (second compound 0.316 µM) was under 0.316 nM and the IC50 (second compound 1 µM) was under 0.316 nM. It also gave a viability, T/C (second compound 0.00316 µM, first compound 0.000316 µM) of 103%, a viability, T/C (second compound 0.00316 µM, first compound 0.001 µM) of 89% and a viability, T/C (second compound 0.00316 µM, first compound 0.00316 µM) of 83.8%. For the same compound, the viability, T/C (second compound 0.00316 µM, first compound 0.01 µM) was 79.1%, the viability, T/C [1] was 69.4% and the viability, T/C [2] was 57.9%. For the same compound, the viability, T/C (second compound 0.01 µM, first compound 0.000316 µM) was 79.7%, the viability, T/C (second compound 0.01 µM, first compound 0.001 µM) was 89.8% and the viability, T/C (second compound 0.01 µM, first compound 0.00316 µM) was 92%. It also gave a viability, T/C (second compound 0.01 µM, first compound 0.01 µM) of 74.7%, a viability, T/C [7] of 70.5% and a viability, T/C [8] of 50.1%. The viability, T/C (second compound 0.0316 µM, first compound 0.000316 µM) was 75.9%, the viability, T/C (second compound 0.0316 µM, first compound 0.001 µM) was 84.6% and the viability, T/C (second compound 0.0316 µM, first compound 0.00316 µM) was 70.2%. The viability, T/C (second compound 0.0316 µM, first compound 0.01 µM) was 67.1%, the viability, T/C [13] was 57.6% and the viability, T/C [14] was 48.4%. For the same compound, the viability, T/C (second compound 0.1 µM, first compound 0.000316 µM) was 60.8%, the viability, T/C (second compound 0.1 µM, first compound 0.001 µM) was 65.1% and the viability, T/C (second compound 0.1 µM, first compound 0.00316 µM) was 63.4%. The viability, T/C (second compound 0.1 µM, first compound 0.01 µM) was 55.3%, the viability, T/C [19] was 48% and the viability, T/C [20] was 34.7%. It also gave a viability, T/C (second compound 0.316 µM, first compound 0.000316 µM) of 29.5%, a viability, T/C (second compound 0.316 µM, first compound 0.001 µM) of 27.4% and a viability, T/C (second compound 0.316 µM, first compound 0.00316 µM) of 26.4%. For the same compound, the viability, T/C (second compound 0.316 µM, first compound 0.01 µM) was 26.9%, the viability, T/C [25] was 26.7% and the viability, T/C [26] was 17.5%. It also gave a viability, T/C (second compound 1 µM, first compound 0.000316 µM) of 3.21%, a viability, T/C (second compound 1 µM, first compound 0.001 µM) of 2.83% and a viability, T/C (second compound 1 µM, first compound 0.00316 µM) of 2.99%. The viability, T/C (second compound 1 µM, first compound 0.01 µM) was 4.15%, the viability, T/C [31] was 3.68% and the viability, T/C [32] was 2.25%.
